Experimental data from ChEMBL document CHEMBL5291721, “A preclinical secondary pharmacology resource illuminates target-adverse drug reaction associations of marketed drugs” (Nat Commun, 2023).

What was measured:
[1] = target: T1, Muscarinic acetylcholine receptor M2 (Homo sapiens, UniProt P08172)
T1 sequence (P08172 whole entry): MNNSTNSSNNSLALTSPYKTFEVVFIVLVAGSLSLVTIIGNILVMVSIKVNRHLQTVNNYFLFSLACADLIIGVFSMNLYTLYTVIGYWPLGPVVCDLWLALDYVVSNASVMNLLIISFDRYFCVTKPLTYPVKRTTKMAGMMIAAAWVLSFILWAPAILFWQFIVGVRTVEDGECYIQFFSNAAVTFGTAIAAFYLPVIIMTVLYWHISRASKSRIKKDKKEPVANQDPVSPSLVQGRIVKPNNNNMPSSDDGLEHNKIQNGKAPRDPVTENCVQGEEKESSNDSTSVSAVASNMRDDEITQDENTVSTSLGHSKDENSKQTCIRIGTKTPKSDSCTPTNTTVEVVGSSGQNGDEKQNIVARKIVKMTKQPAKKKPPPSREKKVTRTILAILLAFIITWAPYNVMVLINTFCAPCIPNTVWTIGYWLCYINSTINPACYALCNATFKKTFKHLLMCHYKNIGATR

[2] = target: T2, Gamma-aminobutyric acid receptor subunit alpha-1 (Rattus norvegicus, UniProt P62813)
T2 sequence (P62813 whole entry): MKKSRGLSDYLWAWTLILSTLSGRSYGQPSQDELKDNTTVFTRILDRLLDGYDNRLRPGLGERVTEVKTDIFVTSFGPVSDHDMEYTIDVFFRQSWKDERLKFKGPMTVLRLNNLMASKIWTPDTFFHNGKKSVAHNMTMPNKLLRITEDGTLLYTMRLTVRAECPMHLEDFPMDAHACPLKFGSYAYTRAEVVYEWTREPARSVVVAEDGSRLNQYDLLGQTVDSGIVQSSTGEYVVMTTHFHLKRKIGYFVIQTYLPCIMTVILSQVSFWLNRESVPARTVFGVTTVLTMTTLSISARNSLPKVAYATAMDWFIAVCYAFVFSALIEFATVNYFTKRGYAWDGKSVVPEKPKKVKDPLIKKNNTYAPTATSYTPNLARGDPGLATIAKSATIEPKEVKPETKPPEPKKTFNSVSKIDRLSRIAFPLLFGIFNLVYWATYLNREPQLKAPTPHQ

[3] = target: Histamine H3 receptor (Homo sapiens, UniProt Q9Y5N1)
Sequence of Histamine H3 receptor (Q9Y5N1 whole entry): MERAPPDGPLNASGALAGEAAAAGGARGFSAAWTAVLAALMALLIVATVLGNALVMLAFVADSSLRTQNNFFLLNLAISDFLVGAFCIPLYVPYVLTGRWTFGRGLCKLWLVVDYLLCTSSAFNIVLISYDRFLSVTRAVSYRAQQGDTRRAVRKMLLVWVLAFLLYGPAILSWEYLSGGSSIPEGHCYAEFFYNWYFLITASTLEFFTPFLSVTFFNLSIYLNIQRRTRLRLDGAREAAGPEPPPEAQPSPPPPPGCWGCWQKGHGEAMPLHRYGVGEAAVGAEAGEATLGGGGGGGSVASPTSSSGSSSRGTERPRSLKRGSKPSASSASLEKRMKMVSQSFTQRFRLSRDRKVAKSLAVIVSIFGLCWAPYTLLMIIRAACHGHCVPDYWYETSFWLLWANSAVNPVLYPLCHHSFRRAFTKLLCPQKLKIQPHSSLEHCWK

[4] = target: Mu-type opioid receptor (Homo sapiens, UniProt P35372)
Sequence of Mu-type opioid receptor (P35372 whole entry): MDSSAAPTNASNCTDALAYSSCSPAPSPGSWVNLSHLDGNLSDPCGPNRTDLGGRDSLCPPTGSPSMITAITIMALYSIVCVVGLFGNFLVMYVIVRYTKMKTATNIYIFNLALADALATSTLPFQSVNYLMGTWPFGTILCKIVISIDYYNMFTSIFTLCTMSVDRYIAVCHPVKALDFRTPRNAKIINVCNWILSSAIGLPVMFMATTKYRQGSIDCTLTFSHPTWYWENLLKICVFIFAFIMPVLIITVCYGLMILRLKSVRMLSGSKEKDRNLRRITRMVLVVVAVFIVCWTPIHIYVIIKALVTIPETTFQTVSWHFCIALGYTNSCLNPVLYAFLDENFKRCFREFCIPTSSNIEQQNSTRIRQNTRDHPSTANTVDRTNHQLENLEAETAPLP

[5] = target: T3, Progesterone receptor (Homo sapiens, UniProt P06401)
T3 sequence (P06401 whole entry): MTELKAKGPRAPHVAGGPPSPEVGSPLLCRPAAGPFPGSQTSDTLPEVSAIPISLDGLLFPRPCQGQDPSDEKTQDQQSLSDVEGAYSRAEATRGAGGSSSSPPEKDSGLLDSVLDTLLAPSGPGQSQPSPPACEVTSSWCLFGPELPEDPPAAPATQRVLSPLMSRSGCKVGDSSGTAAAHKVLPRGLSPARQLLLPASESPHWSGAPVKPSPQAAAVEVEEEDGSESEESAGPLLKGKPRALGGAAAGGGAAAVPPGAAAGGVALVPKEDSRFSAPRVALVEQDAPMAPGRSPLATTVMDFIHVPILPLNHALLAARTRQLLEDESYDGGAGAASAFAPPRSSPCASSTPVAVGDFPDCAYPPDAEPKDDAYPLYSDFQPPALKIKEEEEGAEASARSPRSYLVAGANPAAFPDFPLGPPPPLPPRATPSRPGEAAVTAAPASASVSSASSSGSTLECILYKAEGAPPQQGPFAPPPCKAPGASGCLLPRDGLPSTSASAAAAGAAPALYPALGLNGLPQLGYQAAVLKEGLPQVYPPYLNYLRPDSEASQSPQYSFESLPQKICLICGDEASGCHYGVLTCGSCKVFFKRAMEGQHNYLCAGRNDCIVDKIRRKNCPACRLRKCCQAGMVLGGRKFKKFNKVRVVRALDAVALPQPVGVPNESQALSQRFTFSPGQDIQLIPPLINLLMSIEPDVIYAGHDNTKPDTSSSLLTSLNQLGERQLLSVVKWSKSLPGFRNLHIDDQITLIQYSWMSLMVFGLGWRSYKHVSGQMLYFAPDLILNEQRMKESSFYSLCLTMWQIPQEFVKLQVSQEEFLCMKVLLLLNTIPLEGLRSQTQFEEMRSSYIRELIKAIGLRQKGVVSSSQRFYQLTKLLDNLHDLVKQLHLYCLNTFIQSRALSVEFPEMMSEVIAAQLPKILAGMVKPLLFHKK

[6] = target: Sodium-dependent dopamine transporter (Homo sapiens, UniProt Q01959)
Sequence of Sodium-dependent dopamine transporter (Q01959 whole entry): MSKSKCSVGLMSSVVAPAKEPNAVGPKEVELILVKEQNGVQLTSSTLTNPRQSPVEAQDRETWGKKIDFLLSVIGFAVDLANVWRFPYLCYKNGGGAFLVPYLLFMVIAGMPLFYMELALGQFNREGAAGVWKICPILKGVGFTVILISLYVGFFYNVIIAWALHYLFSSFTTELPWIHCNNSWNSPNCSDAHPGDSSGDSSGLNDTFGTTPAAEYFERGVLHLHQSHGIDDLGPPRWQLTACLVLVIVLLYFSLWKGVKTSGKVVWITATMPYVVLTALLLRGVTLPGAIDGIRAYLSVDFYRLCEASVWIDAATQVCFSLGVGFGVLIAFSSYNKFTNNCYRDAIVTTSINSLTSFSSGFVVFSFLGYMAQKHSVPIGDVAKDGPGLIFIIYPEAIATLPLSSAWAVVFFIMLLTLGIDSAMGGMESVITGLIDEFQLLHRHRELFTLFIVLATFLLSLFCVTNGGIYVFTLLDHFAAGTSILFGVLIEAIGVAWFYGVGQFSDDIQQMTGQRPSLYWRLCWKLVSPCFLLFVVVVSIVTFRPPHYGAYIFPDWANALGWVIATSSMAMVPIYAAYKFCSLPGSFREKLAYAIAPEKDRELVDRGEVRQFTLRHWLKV

[7] = target: Sodium-dependent serotonin transporter (Homo sapiens, UniProt P31645)
Sequence of Sodium-dependent serotonin transporter (P31645 whole entry): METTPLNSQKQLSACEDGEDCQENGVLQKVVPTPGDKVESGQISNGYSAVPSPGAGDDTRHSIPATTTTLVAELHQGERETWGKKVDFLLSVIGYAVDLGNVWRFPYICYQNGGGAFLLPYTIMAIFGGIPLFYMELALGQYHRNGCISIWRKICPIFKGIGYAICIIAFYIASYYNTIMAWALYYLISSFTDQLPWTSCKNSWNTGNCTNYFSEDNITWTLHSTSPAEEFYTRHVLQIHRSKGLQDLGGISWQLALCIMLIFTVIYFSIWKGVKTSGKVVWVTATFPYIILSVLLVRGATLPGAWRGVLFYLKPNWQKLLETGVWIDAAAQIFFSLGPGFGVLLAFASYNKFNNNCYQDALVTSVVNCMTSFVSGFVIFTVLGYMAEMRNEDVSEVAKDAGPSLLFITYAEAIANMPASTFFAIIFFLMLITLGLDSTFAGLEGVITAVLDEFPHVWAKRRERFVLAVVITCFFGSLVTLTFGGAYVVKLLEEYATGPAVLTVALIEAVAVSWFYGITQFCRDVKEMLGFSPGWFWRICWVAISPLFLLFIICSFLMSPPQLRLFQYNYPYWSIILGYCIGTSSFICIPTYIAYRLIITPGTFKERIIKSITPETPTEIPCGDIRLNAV

[8] = target: T4, Thromboxane A2 receptor (Homo sapiens, UniProt P21731); assay type: functional, cell-based
T4 sequence (P21731 whole entry): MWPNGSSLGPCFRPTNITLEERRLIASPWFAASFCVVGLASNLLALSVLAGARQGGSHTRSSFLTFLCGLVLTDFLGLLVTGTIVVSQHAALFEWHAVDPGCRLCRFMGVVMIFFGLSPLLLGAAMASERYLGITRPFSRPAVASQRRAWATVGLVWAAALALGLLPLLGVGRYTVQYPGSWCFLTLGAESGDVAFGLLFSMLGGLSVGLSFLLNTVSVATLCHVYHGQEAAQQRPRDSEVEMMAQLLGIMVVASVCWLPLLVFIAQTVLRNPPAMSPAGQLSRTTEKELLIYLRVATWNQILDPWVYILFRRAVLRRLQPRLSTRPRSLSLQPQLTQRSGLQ

[9] = target: Beta-1 adrenergic receptor (Homo sapiens, UniProt P08588); assay type: functional
Sequence of Beta-1 adrenergic receptor (P08588 whole entry): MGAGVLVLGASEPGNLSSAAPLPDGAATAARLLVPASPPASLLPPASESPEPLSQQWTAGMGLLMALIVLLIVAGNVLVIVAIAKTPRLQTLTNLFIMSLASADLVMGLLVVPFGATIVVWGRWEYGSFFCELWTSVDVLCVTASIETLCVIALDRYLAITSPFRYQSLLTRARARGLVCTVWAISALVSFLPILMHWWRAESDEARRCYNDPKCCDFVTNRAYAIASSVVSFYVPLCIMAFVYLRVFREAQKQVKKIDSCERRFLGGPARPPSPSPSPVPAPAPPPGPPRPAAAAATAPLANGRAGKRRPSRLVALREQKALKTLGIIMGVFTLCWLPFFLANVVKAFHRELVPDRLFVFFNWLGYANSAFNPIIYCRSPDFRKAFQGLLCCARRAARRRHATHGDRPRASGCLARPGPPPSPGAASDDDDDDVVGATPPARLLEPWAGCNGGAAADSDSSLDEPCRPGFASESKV

[10] = target: 3',5'-cyclic-AMP phosphodiesterase 4D (Homo sapiens, UniProt Q08499); assay type: functional
Sequence of 3',5'-cyclic-AMP phosphodiesterase 4D (Q08499 whole entry): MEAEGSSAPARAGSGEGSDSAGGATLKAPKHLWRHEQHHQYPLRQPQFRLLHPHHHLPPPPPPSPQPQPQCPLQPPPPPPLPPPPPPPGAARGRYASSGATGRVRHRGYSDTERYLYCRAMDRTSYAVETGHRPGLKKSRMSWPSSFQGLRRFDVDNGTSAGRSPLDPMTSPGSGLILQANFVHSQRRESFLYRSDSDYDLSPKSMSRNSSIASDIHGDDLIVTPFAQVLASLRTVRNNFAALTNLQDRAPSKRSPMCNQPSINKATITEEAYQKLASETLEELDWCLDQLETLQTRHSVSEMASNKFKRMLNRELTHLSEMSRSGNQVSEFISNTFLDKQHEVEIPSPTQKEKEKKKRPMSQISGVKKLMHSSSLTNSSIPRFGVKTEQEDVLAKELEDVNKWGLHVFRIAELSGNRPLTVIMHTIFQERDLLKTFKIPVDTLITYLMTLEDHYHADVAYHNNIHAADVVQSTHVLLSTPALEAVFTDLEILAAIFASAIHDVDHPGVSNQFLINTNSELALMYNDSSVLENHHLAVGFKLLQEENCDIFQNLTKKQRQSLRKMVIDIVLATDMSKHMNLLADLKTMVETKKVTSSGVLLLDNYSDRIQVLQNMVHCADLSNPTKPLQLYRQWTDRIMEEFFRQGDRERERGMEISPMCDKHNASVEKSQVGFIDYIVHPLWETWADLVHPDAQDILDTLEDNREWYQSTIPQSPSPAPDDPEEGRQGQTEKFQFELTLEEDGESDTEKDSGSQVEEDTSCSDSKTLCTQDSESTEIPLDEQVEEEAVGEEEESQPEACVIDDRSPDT

[11] = target: Vasopressin V2 receptor (Homo sapiens, UniProt P30518)
Sequence of Vasopressin V2 receptor (P30518 whole entry): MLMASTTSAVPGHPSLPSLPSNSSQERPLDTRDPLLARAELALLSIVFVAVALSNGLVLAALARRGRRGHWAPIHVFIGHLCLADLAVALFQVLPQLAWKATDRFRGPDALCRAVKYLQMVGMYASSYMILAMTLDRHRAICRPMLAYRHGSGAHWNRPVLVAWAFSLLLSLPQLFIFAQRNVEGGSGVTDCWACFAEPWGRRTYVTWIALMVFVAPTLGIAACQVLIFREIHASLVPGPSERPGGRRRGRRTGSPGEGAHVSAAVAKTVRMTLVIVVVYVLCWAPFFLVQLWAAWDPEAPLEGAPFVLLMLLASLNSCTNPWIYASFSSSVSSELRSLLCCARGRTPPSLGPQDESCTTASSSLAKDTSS

[12] = target: T5, B2 bradykinin receptor (Homo sapiens, UniProt P30411)
T5 sequence (P30411 whole entry): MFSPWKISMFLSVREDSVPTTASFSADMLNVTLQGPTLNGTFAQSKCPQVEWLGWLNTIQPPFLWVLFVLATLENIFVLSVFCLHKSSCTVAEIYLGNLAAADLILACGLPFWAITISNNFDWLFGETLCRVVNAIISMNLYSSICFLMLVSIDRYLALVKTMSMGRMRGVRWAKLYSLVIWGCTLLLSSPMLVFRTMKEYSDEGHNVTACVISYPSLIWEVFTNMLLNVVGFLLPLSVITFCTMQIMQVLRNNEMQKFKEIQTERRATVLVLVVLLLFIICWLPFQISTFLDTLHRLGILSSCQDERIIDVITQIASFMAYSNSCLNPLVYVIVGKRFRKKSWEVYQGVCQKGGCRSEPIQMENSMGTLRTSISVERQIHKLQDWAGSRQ

[13] = target: T2, Gamma-aminobutyric acid receptor subunit alpha-1; assay type: functional
[14] = target: 5-hydroxytryptamine receptor 2B (Homo sapiens, UniProt P41595); assay type: functional, cell-based
[15] = target: D(3) dopamine receptor (Homo sapiens, UniProt P35462)
Sequence of D(3) dopamine receptor (P35462 whole entry): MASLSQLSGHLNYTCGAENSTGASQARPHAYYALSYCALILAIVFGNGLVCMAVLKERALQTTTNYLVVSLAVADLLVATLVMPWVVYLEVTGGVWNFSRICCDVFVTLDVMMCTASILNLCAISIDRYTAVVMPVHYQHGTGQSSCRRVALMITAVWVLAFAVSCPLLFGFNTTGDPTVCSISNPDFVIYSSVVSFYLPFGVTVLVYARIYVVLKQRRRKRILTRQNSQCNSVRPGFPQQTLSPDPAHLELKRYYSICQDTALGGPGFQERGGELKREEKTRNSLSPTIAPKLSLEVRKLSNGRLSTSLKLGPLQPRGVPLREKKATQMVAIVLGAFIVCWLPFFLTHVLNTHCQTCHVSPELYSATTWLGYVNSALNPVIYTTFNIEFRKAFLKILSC
Also: assay procedure not described here.

Compound | AC50 [1] [µM] | AC50 [2] [µM] | AC50 [3] [µM] | AC50 [4] [µM] | AC50 [5] [µM] | AC50 [6] [µM] | AC50 [7] [µM] | AC50 [8] [µM] | AC50 [9] [µM] | AC50 [10] [µM] | AC50 [11] [µM] | AC50 [12] [µM] | AC50 [13] [µM] | AC50 [14] [µM] | AC50 [15] [µM]
CC[C@@H]1C[C@]1(NC(=O)[C@@H]1C[C@@H]2CN1C(=O)[C@H](C(C)(C)C)NC(=O)OCC(C)(C)CCCCc1cccc3c1CN(C3)C(=O)O2)C(=O)NS(=O)(=O)C1CC1 | > 30 | > 30 | > 30 | > 30 | > 30 | > 30 | > 30 | 29.5 | – | – | – | – | – | – | –
CC(=O)NCCCCCC(=O)O [ACEXAMIC ACID] | > 30 | – | > 30 | > 30 | > 30 | > 30 | > 30 | > 30 | – | – | – | – | – | – | –
C=C(C)CNc1ccc(C(C)C(=O)O)cc1 (stereo not given) [ALMINOPROFEN] | > 30 | – | > 30 | > 30 | > 30 | > 30 | > 30 | > 30 | – | – | – | – | – | – | –
Cc1cc(C2CCCCC2)n(O)c(=O)c1 [CICLOPIROX] | > 30 | – | > 30 | > 30 | > 30 | > 30 | – | 25.4 | > 30 | > 30 | – | – | – | – | –
C[C@H]1O[C@@H](O[C@H]2CC[C@@]3(C)[C@H](CC[C@@H]4[C@@H]3C[C@@H](O)[C@]3(C)[C@@H](C5=CC(=O)OC5)CC[C@]43O)C2)C[C@H](O)[C@@H]1O[C@H]1C[C@H](O)[C@H](O[C@H]2C[C@H](O)[C@H](O[C@@H]3O[C@H](CO)[C@@H](O)[C@H](O)[C@H]3O)[C@@H](C)O2)[C@@H](C)O1 [DESLANOSIDE] | > 30 | – | > 30 | > 30 | > 30 | > 30 | > 30 | > 30 | – | – | – | – | – | – | –
CN[C@@H]1[C@H](O[C@H]2[C@H](O[C@H]3[C@H](O)[C@@H](O)[C@H](NC(=N)N)[C@@H](O)[C@@H]3NC(=N)N)O[C@@H](C)[C@]2(O)CO)O[C@@H](CO)[C@H](O)[C@H]1O [DIHYDROSTREPTOMYCIN] | > 30 | > 30 | > 30 | > 30 | > 30 | > 30 | > 30 | > 30 | – | – | – | – | – | – | –
O=C(O)Cc1ccccc1Oc1ccc(Cl)cc1Cl [FENCLOFENAC] | > 30 | > 30 | > 30 | > 30 | > 30 | > 30 | – | > 30 | > 10 | > 10 | > 30 | > 30 | > 10 | > 10 | > 10
CC1(C)O[C@@H]2C[C@H]3[C@@H]4C[C@H](F)C5=CC(=O)C=C[C@]5(C)[C@@]4(F)[C@@H](O)C[C@]3(C)[C@]2(C(=O)CO)O1 [FLUOCINOLONE ACETONIDE] | > 30 | – | > 30 | > 30 | 0.0107 | > 30 | – | > 30 | – | – | – | – | – | – | –
O=C(O)P(=O)(O)O [FOSCARNET] | > 30 | > 30 | > 30 | > 30 | > 30 | > 30 | – | > 30 | – | – | – | – | – | – | –
COc1ccccc1OC1(C)OC(=O)c2ccccc2O1 (stereo not given) [GUAIMESAL] | > 30 | > 30 | > 30 | > 30 | > 30 | > 30 | – | > 30 | > 30 | – | > 30 | > 30 | – | – | –
N=C(N)N/N=C/c1c(Cl)cccc1Cl [GUANABENZ] | > 30 | – | > 30 | 5.18 | > 30 | 12.8 | – | > 30 | – | – | – | – | – | – | –
CC(C)[C@@H]1CC[C@@H](C)C[C@H]1O [LEVOMENTHOL] | > 30 | – | > 30 | > 30 | > 30 | > 30 | > 30 | > 30 | – | – | – | – | – | – | –
CCNC(=O)/C=C(C)/C=C/C=C(C)/C=C/c1c(C)cc(OC)c(C)c1C [MOTRETINIDE] | > 30 | – | > 30 | 28.4 | 0.932 | > 10 | 28.3 | > 30 | – | – | – | – | – | – | –
COc1ccc2[nH]c([S+]([O-])Cc3ncc(C)c(OC)c3C)nc2c1 (stereo not given) [OMEPRAZOLE] | 15.7 | – | > 30 | 12 | > 30 | > 30 | – | > 30 | – | – | – | – | – | – | –
Cc1ccsc1C(=CCCN1CCC[C@@H](C(=O)O)C1)c1sccc1C [TIAGABINE] | > 30 | – | > 30 | > 30 | > 30 | > 30 | > 30 | > 30 | – | – | – | – | – | – | –
C[C@]12C=CC(=O)C=C1CC[C@H]1[C@@H]3C[C@@H](O)[C@](O)(C(=O)CO)[C@@]3(C)C[C@H](O)[C@@]12F [TRIAMCINOLONE] | > 30 | > 30 | > 30 | > 30 | 19.7 | > 30 | – | > 30 | – | – | – | – | – | – | –
CC(C)C[C@H](NC(=O)[C@@H](O)[C@H](N)Cc1ccccc1)C(=O)O [UBENIMEX] | > 30 | > 30 | > 30 | > 30 | > 30 | > 30 | – | > 30 | > 30 | > 30 | – | – | > 30 | > 30 | > 30
CCC1=C[C@@H]2CN(C1)Cc1c([nH]c3ccccc13)[C@@](C(=O)OC)(c1cc3c(cc1OC)N(C)[C@H]1[C@@](O)(C(=O)OC)[C@H](OC(C)=O)[C@]4(CC)C=CCN5CC[C@]31[C@@H]54)C2 [VINORELBINE] | > 30 | – | > 30 | 6.76 | > 30 | > 30 | – | > 30 | – | – | – | – | – | – | –
